# Tested on: MV-4-11 cells
# Assay: Gene expression microarray analysis (Affymetrix PrimeView) and GSEA
# Type: cell-based, human
# Design: RFU PODN (11730768_x_at) / Fold change /veh PODN (11730768_x_at) / RFU LINC00158 (11744669_a_at) / Fold change /veh LINC00158 (11744669_a_at) / RFU DUSP10 (11751237_a_at) / Fold change /veh DUSP10 (11751237_a_at) / RFU ID3 (11757404_x_at) / Fold change /veh ID3 (11757404_x_at) / RFU PLEKHG5 (11737974_s_at) / Fold change /veh PLEKHG5 (11737974_s_at) / RFU LRRC4B (11730491_at) / Fold change /veh LRRC4B (11730491_at) / RFU GIMAP4 (11747438_a_at) / Fold change /veh GIMAP4 (11747438_a_at) / RFU KRT8 (11758183_x_at) / Fold change /veh KRT8 (11758183_x_at) / RFU CNN1 (11734310_a_at) / Fold change /veh CNN1 (11734310_a_at) / RFU VPS37D (11726825_at) / Fold change /veh VPS37D (11726825_at) / RFU C10orf10 (11716522_x_at) / Fold change /veh C10orf10 (11716522_x_at) / RFU KIR2DL2 /// KIR2DL4 /// KIR2DL5A /// KIR2DL5B /// KIR2DS1 /// KIR2DS2 /// KIR2DS3 /// KIR2DS4 /// KIR3DL3 /// KIR3DL3 /// KIR3DS1 (11738374_at) / Fold change /veh KIR2DL2 /// KIR2DL4 /// KIR2DL5A /// KIR2DL5B /// KIR2DS1 /// KIR2DS2 /// KIR2DS3 /// KIR2DS4 /// KIR3DL3 /// KIR3DL3 /// KIR3DS1 (11738374_at) / RFU C1QL1 (11718748_at) / Fold change /veh C1QL1 (11718748_at) / RFU TMPRSS4 (11747572_a_at) / Fold change /veh TMPRSS4 (11747572_a_at) / RFU HAMP (11756126_x_at) / Fold change /veh HAMP (11756126_x_at) / RFU RNFT2 (11725882_a_at) / Fold change /veh RNFT2 (11725882_a_at) / RFU NR4A2 (11747474_a_at) / Fold change /veh NR4A2 (11747474_a_at) / RFU ABCC12 (11746883_a_at) / Fold change /veh ABCC12 (11746883_a_at) / RFU TMEM136 (11760407_x_at) / Fold change /veh TMEM136 (11760407_x_at) / RFU CLDN22 /// WWC2 (11732394_at) / Fold change /veh CLDN22 /// WWC2 (11732394_at) / RFU HLA-DPB1 (11760878_x_at) / Fold change /veh HLA-DPB1 (11760878_x_at) / RFU SPINT1 (11716480_a_at) / Fold change /veh SPINT1 (11716480_a_at) / RFU GAP43 (11754022_s_at) / Fold change /veh GAP43 (11754022_s_at) / RFU A4GNT (11735810_at) / Fold change /veh A4GNT (11735810_at) / RFU PRB3 (11715151_x_at) / Fold change /veh PRB3 (11715151_x_at) / RFU TUBB4B (11761932_at) / Fold change /veh TUBB4B (11761932_at) / RFU CAPN14 (11732068_a_at) / Fold change /veh CAPN14 (11732068_a_at) / RFU TMCC2 (11721928_a_at) / Fold change /veh TMCC2 (11721928_a_at) / RFU IRGQ (11745062_a_at) / Fold change /veh IRGQ (11745062_a_at) / RFU FAM174B (11720279_a_at) / Fold change /veh FAM174B (11720279_a_at) / RFU TMPRSS4 (11748680_a_at) / Fold change /veh TMPRSS4 (11748680_a_at) / RFU FAM212B (11763350_a_at) / Fold change /veh FAM212B (11763350_a_at) / RFU PLEKHG5 (11743358_a_at) / Fold change /veh PLEKHG5 (11743358_a_at) / RFU ZSCAN30 (11745921_a_at) / Fold change /veh ZSCAN30 (11745921_a_at) / RFU CMKLR1 (11741424_a_at) / Fold change /veh CMKLR1 (11741424_a_at) / RFU LOC101060620 /// MAPK8IP1 (11723275_at) / Fold change /veh LOC101060620 /// MAPK8IP1 (11723275_at) / RFU SPTSSB (11747773_x_at) / Fold change /veh SPTSSB (11747773_x_at) / RFU PRSS12 (11739890_at) / Fold change /veh PRSS12 (11739890_at) / RFU BIN1 (11741810_x_at) / Fold change /veh BIN1 (11741810_x_at) / RFU WNT11 (11732464_a_at) / Fold change /veh WNT11 (11732464_a_at) / RFU C10orf10 (11716521_a_at) / Fold change /veh C10orf10 (11716521_a_at) / RFU C5orf56 (11738089_at) / Fold change /veh C5orf56 (11738089_at) / RFU CYB561 (11721691_x_at) / Fold change /veh CYB561 (11721691_x_at) / RFU ANKRD19P (11752326_a_at) / Fold change /veh ANKRD19P (11752326_a_at) / RFU OR2T12 /// OR2T33 /// OR2T8 (11738714_s_at) / Fold change /veh OR2T12 /// OR2T33 /// OR2T8 (11738714_s_at) / RFU VCAN (11748164_a_at) / Fold change /veh VCAN (11748164_a_at) / RFU JSRP1 (11732532_at) / Fold change /veh JSRP1 (11732532_at) / RFU KRTAP10-11 (11738290_x_at) / Fold change /veh KRTAP10-11 (11738290_x_at) / RFU MYO3A (11730013_a_at) / Fold change /veh MYO3A (11730013_a_at) / RFU EBF3 (11725865_a_at) / Fold change /veh EBF3 (11725865_a_at) / RFU CAMK2N1 (11719241_x_at) / Fold change /veh CAMK2N1 (11719241_x_at) / RFU C5orf56 (11738088_a_at) / Fold change /veh C5orf56 (11738088_a_at) / RFU OLFML3 (11715873_a_at) / Fold change /veh OLFML3 (11715873_a_at) / RFU LOC100653217 /// NTM (11731650_a_at) / Fold change /veh LOC100653217 /// NTM (11731650_a_at) / RFU MAPK11 (11762145_a_at) / Fold change /veh MAPK11 (11762145_a_at) / RFU FIZ1 (11724087_x_at) / Fold change /veh FIZ1 (11724087_x_at) / RFU OASL (11726364_x_at) / Fold change /veh OASL (11726364_x_at) / RFU SOX15 (11748057_x_at) / Fold change /veh SOX15 (11748057_x_at) / RFU CD79A (11719716_a_at) / Fold change /veh CD79A (11719716_a_at) / RFU HIST1H1D (11736915_at) / Fold change /veh HIST1H1D (11736915_at) / RFU CASKIN2 (11723855_a_at) / Fold change /veh CASKIN2 (11723855_a_at) / RFU LOC730098 (11760151_x_at) / Fold change /veh LOC730098 (11760151_x_at) / RFU OR4N2 (11742367_at) / Fold change /veh OR4N2 (11742367_at) / RFU PRRT2 (11749266_a_at) / Fold change /veh PRRT2 (11749266_a_at) / RFU SNX32 (11753110_a_at) / Fold change /veh SNX32 (11753110_a_at) / RFU CDHR5 (11726645_a_at) / Fold change /veh CDHR5 (11726645_a_at) / RFU RCAN1 (11760418_a_at) / Fold change /veh RCAN1 (11760418_a_at) / RFU FAM167A (11723789_a_at) / Fold change /veh FAM167A (11723789_a_at) / RFU FAM26E (11764081_at) / Fold change /veh FAM26E (11764081_at) / RFU ISYNA1 (11749810_s_at) / Fold change /veh ISYNA1 (11749810_s_at) / RFU ACY1 (11761880_at) / Fold change /veh ACY1 (11761880_at) / RFU 11764098_at / Fold change /veh 11764098_at / RFU SAMD14 (11745864_x_at) / Fold change /veh SAMD14 (11745864_x_at) / RFU NPB (11741838_a_at) / Fold change /veh NPB (11741838_a_at) / RFU TMPRSS6 (11731388_a_at) / Fold change /veh TMPRSS6 (11731388_a_at) / RFU KRTAP10-2 (11738614_at) / Fold change /veh KRTAP10-2 (11738614_at) / RFU ARHGAP8 /// PRR5-ARHGAP8 (11727945_x_at) / Fold change /veh ARHGAP8 /// PRR5-ARHGAP8 (11727945_x_at) / RFU KRTAP5-7 /// NADSYN1 (11734609_at) / Fold change /veh KRTAP5-7 /// NADSYN1 (11734609_at) / RFU RASL12 (11751679_a_at) / Fold change /veh RASL12 (11751679_a_at) / RFU CDKN2B (11736163_a_at) / Fold change /veh CDKN2B (11736163_a_at) / RFU PRF1 (11729649_at) / Fold change /veh PRF1 (11729649_at) / RFU, ZNF638 /// ZNF638-IT1 / Fold change vs veh, ZNF638 /// ZNF638-IT1 / RFU, PANK3 / Fold change vs veh, PANK3 / RFU, SH3YL1 / Fold change vs veh, SH3YL1 / RFU, ZEB2 / Fold change vs veh, ZEB2 / RFU, NRIP1 / Fold change vs veh, NRIP1 / RFU, PTTG1IP / Fold change vs veh, PTTG1IP / RFU, CAPN2 / Fold change vs veh, CAPN2 / RFU, MED14 / Fold change vs veh, MED14 / RFU, SNORA58 / Fold change vs veh, SNORA58 / RFU, C1orf63 / Fold change vs veh, C1orf63 / RFU, LRRFIP1 / Fold change vs veh, LRRFIP1 / RFU, NDUFAF7 / Fold change vs veh, NDUFAF7 / RFU, SLC12A2 / Fold change vs veh, SLC12A2 / RFU, IBTK / Fold change vs veh, IBTK / RFU, ESF1 / Fold change vs veh, ESF1 / Fold change vs veh, TMEM50B / RFU, TAOK1 / Fold change vs veh, TAOK1 / RFU, ACBD3 / Fold change vs veh, ACBD3 / RFU, TMA16 / Fold change vs veh, TMA16 / RFU, RWDD3 / Fold change vs veh, RWDD3 / RFU, BCAT1 / Fold change vs veh, BCAT1 / RFU, EDEM3 / Fold change vs veh, EDEM3 / RFU, TMEM33 / Fold change vs veh, TMEM33 / RFU, WDR75 / Fold change vs veh, WDR75 / RFU, AHCTF1 / Fold change vs veh, AHCTF1 / RFU, TFRC / Fold change vs veh, TFRC / RFU, ZDHHC17 / Fold change vs veh, ZDHHC17 / RFU, NOM1 / Fold change vs veh, NOM1 / RFU, ARL8B / Fold change vs veh, ARL8B / RFU, ZBTB11 / Fold change vs veh, ZBTB11 / RFU, TAMM41 / Fold change vs veh, TAMM41 / RFU, KIAA1704 /// LOC100996395 / Fold change vs veh, KIAA1704 /// LOC100996395 / RFU, ING1 / Fold change vs veh, ING1 / RFU, TRMT61B / Fold change vs veh, TRMT61B / RFU, FUBP3 / Fold change vs veh, FUBP3 / RFU, TP53 / Fold change vs veh, TP53 / RFU, TNKS2 / Fold change vs veh, TNKS2 / RFU, ZFP14 / Fold change vs veh, ZFP14 / RFU, ACTR2 / Fold change vs veh, ACTR2 / RFU, PPP3R1 / Fold change vs veh, PPP3R1 / RFU, PIK3R1 / Fold change vs veh, PIK3R1 / RFU, HNRNPA1 / Fold change vs veh, HNRNPA1 / RFU, RNF170 / Fold change vs veh, RNF170 / RFU, ZNF28 / Fold change vs veh, ZNF28 / RFU, RNGTT / Fold change vs veh, RNGTT / RFU, OGT / Fold change vs veh, OGT / RFU, BRD1 / Fold change vs veh, BRD1 / RFU, MARS / Fold change vs veh, MARS / RFU, ZNF655 / Fold change vs veh, ZNF655 / RFU, FAHD1 / Fold change vs veh, FAHD1 / RFU, BDP1 / Fold change vs veh, BDP1 / RFU, LRRCC1 / Fold change vs veh, LRRCC1 / RFU, ARID1A / Fold change vs veh, ARID1A / RFU, ZNF146 / Fold change vs veh, ZNF146 / RFU, ZNF330 / Fold change vs veh, ZNF330 / RFU, GPN3 / Fold change vs veh, GPN3 / RFU, C9orf123 / Fold change vs veh, C9orf123 / RFU, N4BP2L2 / Fold change vs veh, N4BP2L2 / RFU, ARFIP1 / Fold change vs veh, ARFIP1 / RFU, FAM179B / Fold change vs veh, FAM179B / RFU, BCL10 / Fold change vs veh, BCL10 / RFU, UHRF1BP1L / Fold change vs veh, UHRF1BP1L / RFU, BET1 / Fold change vs veh, BET1 / RFU, CNOT2 / Fold change vs veh, CNOT2 / RFU, ZNF268 / Fold change vs veh, ZNF268 / Fold change vs veh, ZNF507 / RFU, DGCR2 / Fold change vs veh, DGCR2 / RFU, WDSUB1 / Fold change vs veh, WDSUB1 / Fold change vs veh, HSP90B1 /// MIR3652 / RFU, ADSS / Fold change vs veh, ADSS / RFU, GK / Fold change vs veh, GK / RFU, ZNF148 / Fold change vs veh, ZNF148 / RFU, TAF9 / Fold change vs veh, TAF9 / RFU, SLC1A5 / Fold change vs veh, SLC1A5 / RFU, SLMO2 / Fold change vs veh, SLMO2 / RFU, ABCC4 / Fold change vs veh, ABCC4 / RFU, LOC101060439 /// RAP1B / Fold change vs veh, LOC101060439 /// RAP1B / RFU, RFX7 / Fold change vs veh, RFX7 / RFU, GTPBP10 / Fold change vs veh, GTPBP10 / RFU, CNEP1R1 / Fold change vs veh, CNEP1R1 / RFU, BIVM-ERCC5 /// ERCC5 / Fold change vs veh, BIVM-ERCC5 /// ERCC5 / RFU, ILF3 / Fold change vs veh, ILF3 / RFU 11762660_at / Fold change /veh 11762660_at / RFU VCAN (11757783_s_at) / Fold change /veh VCAN (11757783_s_at) / RFU DDX43 (11728927_at) / Fold change /veh DDX43 (11728927_at) / RFU KRT8 (11758188_x_at) / Fold change /veh KRT8 (11758188_x_at) / RFU NKD1 (11759106_at) / Fold change /veh NKD1 (11759106_at) / RFU SRD5A1 (11742802_a_at) / Fold change /veh SRD5A1 (11742802_a_at) / RFU TPSAB1 /// TPSB2 (11721975_s_at) / Fold change /veh TPSAB1 /// TPSB2 (11721975_s_at) / RFU GSTM3 (11746129_a_at) / Fold change /veh GSTM3 (11746129_a_at) / RFU IL23R (11737362_x_at) / Fold change /veh IL23R (11737362_x_at) / RFU TMEM51 (11727254_a_at) / Fold change /veh TMEM51 (11727254_a_at) / RFU PIWIL2 (11732686_x_at) / Fold change /veh PIWIL2 (11732686_x_at) / RFU ORM1 (11744905_x_at) / Fold change /veh ORM1 (11744905_x_at) / RFU CCDC152 (11743942_at) / Fold change /veh CCDC152 (11743942_at) / RFU ECM1 (11717891_a_at) / Fold change /veh ECM1 (11717891_a_at) / RFU IL23R (11748794_a_at) / Fold change /veh IL23R (11748794_a_at) / RFU TNFAIP8L3 (11732012_x_at) / Fold change /veh TNFAIP8L3 (11732012_x_at) / RFU MBOAT4 (11741988_at) / Fold change /veh MBOAT4 (11741988_at) / RFU 11764193_at / Fold change /veh 11764193_at / RFU TMEM53 (11763286_at) / Fold change /veh TMEM53 (11763286_at) / RFU MAGEB2 (11727129_at) / Fold change /veh MAGEB2 (11727129_at) / RFU TMEM200A (11744735_a_at) / Fold change /veh TMEM200A (11744735_a_at) / RFU CCDC152 (11751479_a_at) / Fold change /veh CCDC152 (11751479_a_at) / RFU FAM211A (11726209_a_at) / Fold change /veh FAM211A (11726209_a_at) / RFU RGS16 (11746705_a_at) / Fold change /veh RGS16 (11746705_a_at) / RFU VCAN (11755009_s_at) / Fold change /veh VCAN (11755009_s_at) / RFU RHOB (11743442_s_at) / Fold change /veh RHOB (11743442_s_at) / RFU RGS16 (11720943_a_at) / Fold change /veh RGS16 (11720943_a_at) / RFU RGS16 (11720944_at) / Fold change /veh RGS16 (11720944_at) / RFU, VPS4B / Fold change vs veh, VPS4B / RFU, CREB1 / Fold change vs veh, CREB1 / RFU, DNAJC13 / Fold change vs veh, DNAJC13 / RFU, GNAQ / Fold change vs veh, GNAQ / RFU, CDK5R1 / Fold change vs veh, CDK5R1 / RFU, ZRANB3 / Fold change vs veh, ZRANB3 / RFU, CUL4A / Fold change vs veh, CUL4A / RFU, CCNY / Fold change vs veh, CCNY / RFU, UFL1 / Fold change vs veh, UFL1 / RFU, COG3 / Fold change vs veh, COG3 / RFU, DIAPH2 / Fold change vs veh, DIAPH2 / RFU, SKA2 / Fold change vs veh, SKA2 / RFU, AFF3 / Fold change vs veh, AFF3 / RFU, LMF1 / Fold change vs veh, LMF1 / RFU, IPO11 / Fold change vs veh, IPO11 / RFU, DFFB / Fold change vs veh, DFFB / RFU, FOXP1 / Fold change vs veh, FOXP1 / RFU, CARD8 / Fold change vs veh, CARD8 / RFU, STRN3 / Fold change vs veh, STRN3 / RFU, ADK / Fold change vs veh, ADK / RFU, RASSF2 / Fold change vs veh, RASSF2 / RFU, WIPF1 / Fold change vs veh, WIPF1 / RFU, LARP1B / Fold change vs veh, LARP1B / RFU, RASA1 / Fold change vs veh, RASA1 / RFU, RB1 / Fold change vs veh, RB1 / RFU, PPFIA1 / Fold change vs veh, PPFIA1 / RFU, MAT2A / Fold change vs veh, MAT2A / RFU, CCT5 / Fold change vs veh, CCT5 / RFU, WDR92 / Fold change vs veh, WDR92 / RFU, CUX1 / Fold change vs veh, CUX1 / RFU, TTC7A / Fold change vs veh, TTC7A / RFU, TMEM135 / Fold change vs veh, TMEM135 / RFU, DEPTOR / Fold change vs veh, DEPTOR / RFU, CPM / Fold change vs veh, CPM / RFU, DNAJB6 / Fold change vs veh, DNAJB6 / RFU, CACNA2D3 / Fold change vs veh, CACNA2D3 / RFU, DTX4 / Fold change vs veh, DTX4 / RFU, TFCP2 / Fold change vs veh, TFCP2 / RFU, GMCL1 /// GMCL1P1 / Fold change vs veh, GMCL1 /// GMCL1P1 / RFU, AEBP2 / Fold change vs veh, AEBP2 / RFU, SNHG1 /// SNORD22 /// SNORD25 /// SNORD26 /// SNORD27 /// SNORD28 /// SNORD29 /// SNORD31 / Fold change vs veh, SNHG1 /// SNORD22 /// SNORD25 /// SNORD26 /// SNORD27 /// SNORD28 /// SNORD29 /// SNORD31 / Fold change (Aza/veh), C12orf56 (ProbeSet 11735607_a_at) / Fold change (ACY-1035/veh), C12orf56 (ProbeSet 11735607_a_at) / Fold change (Aza/veh), FGFR1OP (ProbeSet 11751329_s_at) / Fold change (ACY-1035/veh), FGFR1OP (ProbeSet 11751329_s_at) / Fold change (Aza/veh), VPS36 (ProbeSet 11739960_a_at) / Fold change (ACY-1035/veh), VPS36 (ProbeSet 11739960_a_at) / RFU SYPL1 (11715823_x_at) / Fold change /veh SYPL1 (11715823_x_at) / RFU IGFBP7 (11715501_s_at) / Fold change /veh IGFBP7 (11715501_s_at) / RFU REEP3 (11722064_at) / Fold change /veh REEP3 (11722064_at) / RFU IGLL1 (11728026_x_at) / Fold change /veh IGLL1 (11728026_x_at): dose or concentration left out as unconfirmed
# Details: MV-4-11 cells, 48 hours
smiles,measurement,value
Nc1ncn([C@@H]2O[C@H](CO)[C@@H](O)[C@H]2O)c(=O)n1 [azacitidine],Fold change /veh DUSP10 (11751237_a_at),1.16
